Experimental findings from patent US20230104936A1, “TRPML MODULATORS” (Casma Therapeutics, Inc., priority 2019, published 2023) are described below.

The subject of this experiment is TFEB. In words: TFEB nuclear translocation assay, HeLa wt cells. The format is cell-based. The following applies: 2 hrs compound treatment, Table 1 does not say HeLa wt or TRPML1 KO. An outline of the steps:
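Read-out is the ratio of TFEB immunofluorescence in the nucleus to that in a ring just outside it, measured by automated imaging. HeLa wt cells received compounds for 2 hrs at 37° C before fixation and staining; AC50 values come from this ratio.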

For the compound `CC1(C)CC2(CCN(c3ccccc3NS(=O)(=O)C3=Cc4ccccc4OC3)CC2)CO1` [Compound A-675, N-(2-{3,3-dimethyl-2-oxa-8-azaspiro[4.5]decan-8-yl}phenyl)-2H-chromene-3-sulfonamide], the concentration at half-maximal activity (AC50) – broadly, the concentration at which the activity in the assay is half-maximal – (Homo sapiens, HeLa, 2 h) is at most 2000 nM. On the same count and under the same terms, to `COCC1(C)CCN(c2ccccc2NS(=O)(=O)c2ccc(S(=O)(=O)N3CCC3)cc2)CC1` [Compound A-736, 4-(azetidine-1-sulfonyl)-N-{2-[4-(methoxymethyl)-4-methylpiperidin-1-yl]phenyl}benzene-1-sulfonamide] belongs at most 2000 nM; to `CC1(C)CC2(CCN(c3ccccc3NS(=O)(=O)c3ccc(Br)cc3)CC2)CO1` [Compound A-691, 4-bromo-N-(2-{3,3-dimethyl-2-oxa-8-azaspiro[4.5]decan-8-yl}phenyl)benzene-1-sulfonamide], 2010 to 8000 nM.

Regarding `CC(c1cccnc1N1CCC(CN2C[C@@H](C)O[C@@H](C)C2)CC1)S(=O)(=O)c1ccc(S(=O)(=O)N(C)C)cc1` (stereo partly drawn) [Compound A-879, 4-{1-[2-(4-{[(2R,6S)-2,6-dimethylmorpholin-4-yl]methyl}piperidin-1-yl)pyridin-3-yl]ethanesulfonyl}-N,N-dimethylbenzene-1-sulfonamide], the concentration at half-maximal activity (AC50) (Homo sapiens, HeLa, 2 h) was at most 2000 nM. `CN(C)S(=O)(=O)c1ccc(S(=O)(=O)Nc2ccccc2N2CCC(c3cccc(C(=O)O)c3)CC2)cc1` [Compound A-266, 3-(1-{2-[4-(dimethylsulfamoyl)benzenesulfonamido]phenyl}piperidin-4-yl)benzoic acid] returned an AC50 (Homo sapiens, HeLa, 2 h) of at least 10000 nM. The compound `COc1ccc(S(=O)(=O)Nc2ccccc2N2CCC(N(C)c3ccc(F)cc3F)C2)cc1` (stereo not shown) [Compound A-201, N-(2-{3-[(2,4-difluorophenyl)(methyl)amino]pyrrolidin-1-yl}phenyl)-4-methoxybenzene-1-sulfonamide] yielded an AC50 (Homo sapiens, HeLa, 2 h) of 2010 to 8000 nM.

The compound `O=S(=O)(Nc1cc(Cl)ccc1N1CCCC12CCCOC2)c1ccc2c(c1)CCC2` (stereo not shown) [Compound A-405, N-(5-chloro-2-{7-oxa-1-azaspiro[4.5]decan-1-yl}phenyl)-2,3-dihydro-1H-indene-5-sulfonamide] displayed a half-maximal activity concentration (AC50) (Homo sapiens, HeLa, 2 h) of 2010 to 8000 nM. The same measure, in the same setting: the result for `CC1(C)CC2(CCN(c3ccccc3NS(=O)(=O)c3ccc4c(c3)COCC4)CC2)CO1` [Compound A-715, N-(2-{3,3-dimethyl-2-oxa-8-azaspiro[4.5]decan-8-yl}phenyl)-3,4-dihydro-1H-2-benzopyran-7-sulfonamide] reads at most 2000 nM. Compound `C[C@H](c1cccc(F)c1N1CCCCC1)S(=O)(=O)c1ccc(S(=N)(=O)N(C)C)cc1` (single isomer, unassigned) [Compound A-894] returned an AC50 of 2010 to 8000 nM. Compound `O=S(=O)(Nc1cccc(F)c1N1CCC(CN2C3CCC2COC3)CC1)c1ccc2c(c1)CCC2` [Compound A-882, N-{3-fluoro-2-[4-({3-oxa-8-azabicyclo[3.2.1]octan-8-yl}methyl)piperidin-1-yl]phenyl}-2,3-dihydro-1H-indene-5-sulfonamide] had a half-maximal activity concentration (AC50) (Homo sapiens, HeLa, 2 h) of at most 2000 nM. In turn, `CC(c1cccc(F)c1N1CCC(CN2CCC(F)(F)CC2)CC1)S(=O)(=O)c1ccc(C(F)F)cc1` (single isomer, unassigned) [Compound A-998, 1-((1-(2-(1-((4-(difluoromethyl)phenyl)sulfonyl)ethyl)-6-fluorophenyl)piperidin-4-yl)methyl)-4,4-difluoropiperidine] displayed an AC50 of 2010 to 8000 nM. `CC(c1cccc(F)c1N1CCC(CN2C[C@@H](C)O[C@H](C)C2)CC1)S(=O)(=O)c1ccc(S(=O)(=O)N(C)C)cc1` (single isomer, unassigned) [Compound A-885, 4-[1-[2-(4-{[2,6-dimethylmorpholin-4-yl]methyl}piperidin-1-yl)-3-fluorophenyl]ethanesulfonyl]-N,N-dimethylbenzene-1-sulfonamide]: the AC50 (Homo sapiens, HeLa, 2 h) was at most 2000 nM.

With `CC(c1cccc(F)c1N1CCC(COC(C)(C)C)CC1)S(=O)(=O)c1ccc(S(=N)(=O)N(C)C)cc1` (single isomer, unassigned) [Compound A-962, 4-((1-(2-(4-(tert-butoxymethyl)piperidin-1-yl)-3-fluorophenyl)ethyl)sulfonyl)-N,N-dimethylbenzenesulfonimidamide], the AC50 was at most 2000 nM.
